Among the data in the supplement of paper PMC10307832 are relative viability values, retold here.

Common to all, as to experiment: relative viability (nuclei count vs DMSO), 5 days (fraction); higher = more cells survive
Compound in the assay “Bleomycin + Trametinib”: CC1=C(N=C(N=C1N)[C@H](CC(=O)N)NC[C@@H](C(=O)N)N)C(=O)N[C@@H]([C@H](C2=CN=CN2)OC3C(C(C(C(O3)CO)O)O)OC4C(C(C(C(O4)CO)O)OC(=O)N)O)C(=O)N[C@H](C)[C@H]([C@H](C)C(=O)N[C@@H]([C@@H](C)O)C(=O)NCCC5=NC(=CS5)C6=NC(=CS6)C(=O)NCCC[S+](C)C)O [Bleomycin] + CC(=O)Nc1cccc(-n2c(=O)n(C3CC3)c(=O)c3c(Nc4ccc(I)cc4F)n(C)c(=O)c(C)c32)c1 [Trametinib] (partner 0.02 µM)
The conditions noted are these: main component drawn. The method, boiled down:
(§1)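 Cells from lung cancer lines were seeded into 1536-well plates and, one day later, dosed by pin tool. Treatments were either a single drug or a fixed dose of an anchor drug with five library-drug doses (not always all listed) in √10 steps. After 5 days, nuclei were stained in a one-step fixation (final 0.05% Triton X-100, 1% formaldehyde, 1 ug/ml Hoechst) and counted on 4× images, and relative viability is the treated-to-vehicle nuclei ratio, as the median of duplicate plates.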

Compound in the assay “Bleomycin + Decitabine”: CC1=C(N=C(N=C1N)[C@H](CC(=O)N)NC[C@@H](C(=O)N)N)C(=O)N[C@@H]([C@H](C2=CN=CN2)OC3C(C(C(C(O3)CO)O)O)OC4C(C(C(C(O4)CO)O)OC(=O)N)O)C(=O)N[C@H](C)[C@H]([C@H](C)C(=O)N[C@@H]([C@@H](C)O)C(=O)NCCC5=NC(=CS5)C6=NC(=CS6)C(=O)NCCC[S+](C)C)O [Bleomycin] + Nc1ncn([C@H]2C[C@H](O)[C@@H](CO)O2)c(=O)n1 [Decitabine] (partner 2 µM)
To be noted: main component drawn. The method, boiled down: as §1

Compound in the assay “Etoposide + Crizotinib”: COc1cc([C@@H]2c3cc4c(cc3[C@@H](O[C@@H]3O[C@@H]5CO[C@@H](C)O[C@H]5[C@H](O)[C@H]3O)[C@H]3COC(=O)[C@H]23)OCO4)cc(OC)c1O [Etoposide] + C[C@@H](Oc1cc(-c2cnn(C3CCNCC3)c2)cnc1N)c1c(Cl)ccc(F)c1Cl [Crizotinib] (partner 1 µM)
In short, it runs like this: as §1

Compound in the assay “Etoposide + Alpelisib”: COc1cc([C@@H]2c3cc4c(cc3[C@@H](O[C@@H]3O[C@@H]5CO[C@@H](C)O[C@H]5[C@H](O)[C@H]3O)[C@H]3COC(=O)[C@H]23)OCO4)cc(OC)c1O [Etoposide] + Cc1nc(NC(=O)N2CCC[C@H]2C(N)=O)sc1-c1ccnc(C(C)(C)C(F)(F)F)c1 [Alpelisib] (partner 2 µM)
In short, it runs like this: as §1

In the case of UMC-11, the relative viability in the assay with Bleomycin + Trametinib (first compound 0.01 µM) was 0.653; with Bleomycin + Trametinib (first compound 0.03162 µM) it was 0.652; with Bleomycin + Trametinib (first compound 0.1 µM), 0.774; in the assay with Bleomycin + Trametinib (first compound 0.3162 µM), 0.632; with Bleomycin + Trametinib (first compound 1 µM), 0.345; with Bleomycin + Decitabine (first compound 0.01 µM), 0.493. Further, the relative viability with Bleomycin + Decitabine (first compound 0.03162 µM) came to 0.509; in the assay with Bleomycin + Decitabine (first compound 0.1 µM), 0.473; with Bleomycin + Decitabine (first compound 0.3162 µM), 0.528; with Bleomycin + Decitabine (first compound 1 µM), 0.404; with Etoposide + Crizotinib (first compound 0.01 µM), 0.703; with Etoposide + Crizotinib (first compound 0.03162 µM), 0.573. Besides, the relative viability amounted to 0.241 with Etoposide + Crizotinib (first compound 0.3162 µM); 0.146 in the assay with Etoposide + Crizotinib (first compound 1 µM); 0.943 with Etoposide + Alpelisib (first compound 0.01 µM); 1.11 with Etoposide + Alpelisib (first compound 0.03162 µM); 0.352 with Etoposide + Alpelisib (first compound 0.3162 µM); 0.222 with Etoposide + Alpelisib (first compound 1 µM).
